“And” between values parts separate entries of the source, which are not always exact repeats. Identical values can stand only once. Like-named read-outs stand apart in the source and are kept apart here.
Experiments:
Assay type in all cases: cell-based
Campylobacter jejuni = test: Agar plate assay, inhibition of pathogenic germs by CE test germs
Clostridium perfringens = tested on: Clostridium perfringens
Salmonella choleraesuis = test: Agar plate assay, inhibition of pathogenic germs by CE test germs
E. coli = test: as above

| Substance | inhibition zone to test germ ratio, Campylobacter jejuni (Campylobacter jejuni; MRS agar) | inhibition zone to test germ ratio, Clostridium perfringens (Clostridium perfringens) | inhibition zone to test germ ratio, Salmonella choleraesuis (Salmonella choleraesuis; MRS agar) | inhibition zone to test germ ratio, Campylobacter jejuni (Campylobacter jejuni) | inhibition zone to test germ ratio, Salmonella choleraesuis (Salmonella choleraesuis) | inhibition zone to test germ ratio, E. coli (E. coli) |
| --- | --- | --- | --- | --- | --- | --- |
| Lactobacillus reuteri [DSM 16350] | 1.36 | 2.12 | 1.60 | – | – | – |
| Lactobacillus salivarius ssp. salivarius [DSM 16351] | 1.50 | 2.05 | 1.46 | – | – | – |
| Enterococcus faecium [DSM 16211] | 1.28 | 1.43 | 1.37 | – | – | – |
| Pediococcus acidilactici [DSM 20284] | 1.32 | 1.35 | 1.10 | – | – | – |
| Lactobacillus reuteri [DSM 20016] | 1.35 | 1.54 | 1.20 | – | – | – |
| Enterococcus faecium [NCIMB 10415] | – | 1.31 | – | 1.22 | 1.20 | 1.37 and 1.35 |
| Lactobacillus salivarius [DSM 20555] | 1.41 | 1.63 | 1.09 | – | – | – |
| Bifidobacterium animalis [DSM 20104] | 0.31 | 1.42 | 0.65 | – | – | – |
